Test results taken from US12486269B2 (Aconcagua Bio, Inc., priority 2024, dated 2025).

Assays:
[1] = molecular target: T1, COS-7/AMY3 (human calcitonin receptor (CTR) and RAMP3) (Homo sapiens, UniProt O60896+P30988); experiment: Amylin Receptor cAMP Assay II; format: cell-based; conditions: values marked **: Amylin Receptor cAMP Assay II; COS-7/AMY3 cells, cAMP dynamic 2 kit, 30 min; read-out: Amylin Receptor cAMP Stimulation Activity: EC50
T1 construct: expressed in transfected cells; host or cells: COS-7
T1 sequence (O60896 24-148, one chain of several): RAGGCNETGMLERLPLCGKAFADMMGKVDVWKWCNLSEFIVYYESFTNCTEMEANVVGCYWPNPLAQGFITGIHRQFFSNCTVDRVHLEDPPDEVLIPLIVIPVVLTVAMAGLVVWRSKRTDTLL
Text: AMYRs are heterodimers of the class B calcitonin (CT) G-protein-coupled receptor (CTR) and receptor activity-modifying proteins (RAMPs). All three RAMPs can interact with the CTR and form AMY1, AMY2, AMY3 with RAMP1, RAMP2 and RAMP3, respectively. Like other class B1 GPCRs, the CT receptor family is canonically coupled to Gs-mediated cAMP production, and measurement of cAMP accumulation has been the primary assay used to determine peptide selectivity and potency.
(§1) To optimize functional activity directed toward Gαs coupling, COS-7 cells were stably transfected with human calcitonin receptor (CTR) and RAMP3, simultaneously. 100×concentration of compound working solutions were prepared with 4-fold serial dilution in 384-well Echo LDV plate (Labcyte, Cat #LP-0200-BC). 200 nL/well 100×concentration of compound working solutions were moved to 384-well white microplate (Perkin Elmer, Cat #6007680) using Labcyte ECHO550. 1×10^5 cells/mL COS-7/AMY3 cell suspensions prepared with assay buffer [HBSS containing 20 mM HEPES (Gibco, Cat #15630-080), 0.5 mM IBMX (Sigma, Cat #15879) and 0.1% Casein (Sigma, Cat #C4765)], 20 μL cell suspensions were added to each well of previous generated assay plate which already contains 200 nL compound at 100×concentration using ThermoFisher Multidrop Combi (2000 cells/well). Seal the plate and incubate at 37° C. with 5% CO2 for 30 min.
(§2) After incubation, the cAMP assay signal was generated using cAMP dynamic 2 kit (Revvity, Cat #62AM4PEC). 10 μL cAMP-d2 working solution was added to each well, followed by 10 μL Anti-cAMP antibody-cryptate working solution which was added to each well using CERTUS FLEX LIQUID […]. The samples were then incubated at room temperature for 1 hour protected from light. the fluorescence was read at 665 and 615 nm with Reader PerkinElmer EnVision 2105. % Activity=100−(mean RLU of test sample−mean RLU of positive control)/(mean RLU of vehicle control−mean RLU of positive control)×100 Calcitonin Receptor (CTR) cAMP Assay

[2] = molecular target: T2, human calcitonin receptor (CTR) (Homo sapiens, UniProt P30988); experiment: Calcitonin Receptor (CTR) cAMP Assay; format: cell-based; conditions: COS7-human CTR Clone #2 stable cell line, cAMP dynamic 2 kit, 30 min; read-out: Calcitonin Receptor cAMP Stimulation Activity: EC50
T2 construct: expressed in transfected cells; host or cells: COS-7 (COS7-human CTR Clone #2)
T2 sequence (P30988 25-474): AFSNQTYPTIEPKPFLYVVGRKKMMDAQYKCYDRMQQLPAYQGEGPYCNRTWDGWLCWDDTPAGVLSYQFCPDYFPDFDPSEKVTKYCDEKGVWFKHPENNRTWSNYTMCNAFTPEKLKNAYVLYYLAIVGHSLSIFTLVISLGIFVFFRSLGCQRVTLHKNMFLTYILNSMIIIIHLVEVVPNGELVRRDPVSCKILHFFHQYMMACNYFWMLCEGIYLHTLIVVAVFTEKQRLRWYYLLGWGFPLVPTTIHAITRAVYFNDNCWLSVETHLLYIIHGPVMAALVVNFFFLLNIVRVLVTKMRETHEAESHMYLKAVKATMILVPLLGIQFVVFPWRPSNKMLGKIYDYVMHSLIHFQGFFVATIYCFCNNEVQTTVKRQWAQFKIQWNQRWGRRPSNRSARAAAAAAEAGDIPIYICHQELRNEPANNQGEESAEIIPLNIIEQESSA
Method: as §2
The calcitonin receptor (CTR) belongs to the subfamily of GPCRs known as the secretin or ‘B’ family of GPCRs. Like other class B1 GPCRs, the CT receptor family is canonically coupled to Gs-mediated cAMP production, and measurement of cAMP accumulation has been the primary assay used to determine peptide selectivity and potency.
as §1, with “to create COS7-human CTR Clone #2 stable cell line.” for “and RAMP3, simultaneously.”, “COS7-human CTR Clone #2” for “COS-7/AMY3”
as §2, with “control)×100” for “control)×100 Calcitonin Receptor (CTR) cAMP Assay”

Structure (SMILES) | EC50 [1] [nM] | EC50 [2] [nM]
O=C1c2c(nc(CCc3ccc(F)cc3)c(-c3noc(=O)[nH]3)c2-c2cc3ccnc(NCc4ccc(F)c(Cl)c4)c3s2)[C@@H]2CCCN12 [Compound 146] | 54.1 | 3.18
O=C1c2c(nc(CCc3ccc(F)cc3)c(-c3noc(=O)[nH]3)c2-c2ccc3nn(C4CCc5ccccc54)cc3c2)[C@@H]2CCCN12 (stereo partly shown) [Compound 152] | 5100 | 513
O=C1c2c(nc(CCc3ccc(F)cc3)c(-c3noc(=O)[nH]3)c2-c2ccc3c(ccn3Cc3ccc(F)c(F)c3)c2)[C@@H]2CCCN12 [Compound 153] | 16.6 | 2.58
CC(C)C1CS(=O)(=O)c2c1nc(CCC1CCOCC1)c(-c1cc(=O)[nH]o1)c2-c1cc2ccnc(N[C@@H]3CCc4ncccc43)c2s1 (stereo partly drawn) [Compound 154, 5-(7-(7-(((R)-6,7-dihydro-5H-cyclopenta[b]pyridin-5-yl)amino)thieno[2,3-c]pyridin-2-yl)-3-isopropyl-1,1-dioxido-5-(2-(tetrahydro-2H-pyran-4-yl)ethyl)-2,3-dihydrothieno[3,2-b]pyridin-6-yl)isoxazol-3(2H)-one] | 648 | 52.8
CC(C)C1CS(=O)(=O)c2c1nc(CCC1CCOCC1)c(-c1n[nH]c(=O)o1)c2-c1cnc2c(ccn2Cc2ccc(C#N)c(F)c2)c1 (stereo not shown) [Compound 157, 2-fluoro-4-((5-(3-isopropyl-1,1-dioxido-6-(5-oxo-4,5-dihydro-1,3,4-oxadiazol-2-yl)-5-(2-(tetrahydro-2H-pyran-4-yl)ethyl)-2,3-dihydrothieno[3,2-b]pyridin-7-yl)-1H-pyrrolo[2,3-b]pyridin-1-yl)methyl)benzonitrile] | 115 | 7.42
N#Cc1ccc(Cn2ccc3cc(-c4c(-c5n[nH]c(=O)o5)c(CCc5ccc(F)cc5)nc5c4c(=O)n4n5CCC4)ccc32)cc1F [Compound 158, 2-fluoro-4-((5-(2-(4-fluorophenethyl)-5-oxo-3-(5-oxo-4,5-dihydro-1,3,4-oxadiazol-2-yl)-8,9-dihydro-5H,7H-pyrazolo[1′,2′:1,2]pyrazolo[3,4-b]pyridin-4-yl)-1H-indol-1-yl)methyl)benzonitrile] | 12.8 | 1.19
CC(c1ccc(C#N)c(F)c1)n1ccc2cc(-c3c(-c4n[nH]c(=O)o4)c(CCc4ccc(F)cc4)nc4c3c(=O)n3n4CCC3)ccc21 (stereo not shown) [Compound 159, 2-fluoro-4-[1-[5-[11-[2-(4-fluorophenyl)ethyl]-7-oxo-10-(2-oxo-3H-1,3,4-oxadiazol-5-yl)-2,6,12-triazatricyclo[6.4.0.02,6]dodeca-1(8),9,11-trien-9-yl]indol-1-yl]ethyl]benzonitrile] | 28.7 | 1.17
CC(c1ccc(C#N)cn1)n1c(=O)oc2cc(-c3c4c(nc(CCc5ccc(F)cc5)c3-c3n[nH]c(=O)o3)[C@@H]3CCCN3C4=O)ccc21 (stereo partly drawn) [Compound 160, 6-[1-[6-[(9aS)-2-[2-(4-fluorophenyl)ethyl]-5-oxo-3-(2-oxo-3H-1,3,4-oxadiazol-5-yl)-7,8,9,9a-tetrahydropyrido[2,3-a]pyrrolizin-4-yl]-2-oxo-1,3-benzoxazol-3-yl]ethyl]pyridine-3-carbonitrile] | 12.2 | 0.724
N#Cc1ccc(Cn2ccc3cc(-c4c(-c5n[nH]c(=O)o5)c(CCc5ccc(F)cc5)nc5c4c(=O)n4n5CCC4)cnc32)cc1F [Compound 161] | 35.8 | 1.82

Now from value to compound:

EC50 [1] [nM] | EC50 [2] [nM] | Structure (SMILES)
19.1 | 2.13 | C[C@@H](Nc1nccc2cc(-c3c4c(nc(CCc5ccc(F)cc5)c3-c3noc(=O)[nH]3)[C@@H]3CCCN3C4=O)sc12)c1ccc(F)c(F)c1 [Compound 140]
711 | 88.8 | C[C@H](Nc1nccc2cc(-c3c4c(nc(CCc5ccc(F)cc5)c3-c3noc(=O)[nH]3)[C@@H]3CCCN3C4=O)sc12)c1ccc(F)c(F)c1 [Compound 141]
51.9 | 2.8 | O=C1c2c(nc(CCc3ccc(F)cc3)c(-c3noc(=O)[nH]3)c2-c2cc3ccnc(NCc4ccc(Cl)c(F)c4)c3s2)[C@@H]2CCCN12 [Compound 147]
288 | 18.7 | O=C1c2c(nc(CCc3ccc(F)cc3)c(-c3noc(=O)[nH]3)c2-c2cc3ccnc(NCc4ccc5c(c4)CCC5)c3s2)[C@@H]2CCCN12 [Compound 148]
25.4 | 1.06 | COc1cccc2c1CC[C@H]2Nc1nccc2cc(-c3c4c(nc(CCc5ccc(F)cc5)c3-c3cc(=O)[nH]o3)[C@@H]3CCCN3C4=O)sc12 [Compound 150, 5-((S)-2-(4-fluorophenethyl)-4-(7-(((R)-4-methoxy-2,3-dihydro-1H-inden-1-yl)amino)thieno[2,3-c]pyridin-2-yl)-5-oxo-7,8,9,9a-tetrahydro-5H-pyrido[2,3-a]pyrrolizin-3-yl)isoxazol-3(2H)-one]
159 | 22 | COc1cccc2c1CC[C@H]2Nc1nccc2cc(-c3c4c(nc(CCc5cccc(C6CCOC6)c5)c3-c3noc(=O)[nH]3)[C@@H]3CCCN3C4=O)sc12 (stereo partly drawn) [Compound 151, 3-((9aS)-4-(7-(((R)-4-methoxy-2,3-dihydro-1H-inden-1-yl)amino)thieno[2,3-c]pyridin-2-yl)-5-oxo-2-(3-(tetrahydrofuran-3-yl)phenethyl)-7,8,9,9a-tetrahydro-5H-pyrido[2,3-a]pyrrolizin-3-yl)-1,2,4-oxadiazol-5(4H)-one]
33.5 | 1.21 | COc1cccc2c1CC[C@H]2Nc1nccc2cc(-c3c(-c4n[nH]c(=O)o4)c(CCc4ccc(F)cc4)nc4c3c(=O)n3n4CCC3)sc12 [Compound 155]
55.4 | 2.48 | COc1cccc2c1CC[C@H]2Nc1nccc2cc(-c3c(-c4n[nH]c(=O)o4)c(CCc4ccc(F)cc4)nc4c3S(=O)(=O)CC4C(C)C)sc12 (stereo partly drawn) [Compound 156, 5-(5-(4-fluorophenethyl)-3-isopropyl-7-(7-(((R)-4-methoxy-2,3-dihydro-1H-inden-1-yl)amino)thieno[2,3-c]pyridin-2-yl)-1,1-dioxido-2,3-dihydrothieno[3,2-b]pyridin-6-yl)-1,3,4-oxadiazol-2(3H)-one]
